Results on one compound are retold here after US10889553B2, “Asymmetric triazole benzamide derivatives and the compositions and methods of treatment regarding the same” (NysnoBio Ireland DAC, priority 2017, dated 2021).

In series [1] the test system is subcutaneous HCT-116 (colon cancer) xenograft. Briefly: In vivo cancer xenograft assay. As to conditions: 5 mg/kg daily IP, up to 26 days, HCT-116 xenograft in nude mice (FIG. 1). As for the experimental part: Each mouse was inoculated subcutaneously at the flank region with either HCT-116 cells (1.0×106) in 0.1 ml of 1×PBS mixed with Matrigel (1:1) for tumor development and xenotransplantation.
The vehicle with or without drug is administered to the mouse by intraperitoneal injection. The formulation with respective drug is as follows: • 10% —DMA: N,N-Dimethyl acetamide • 15% —Solutol HS 15: Macrogol 15 Hydroxy Stearate, Polyethylene glycol-15-hydroxystrerate; and 75%-20% aqueous HP-β-CD: Hydroxypropyl-beta-cyclodextrin
Before grouping and treatment, all animals were weighed and the tumor volumes were confirmed (approx. 120-150 mm^3) using electronic caliper. Since the tumor volume can affect the effectiveness of any given treatment, mice were assigned into groups using randomized block design as following: First, the experimental animals were divided into homogeneous blocks based on their tumor volume. […]
After tumor cells were inoculated, the animals were checked daily for morbidity and mortality. […] Death and observed clinical signs were recorded. Tumor volumes were measured every three days in two dimensions using an electronic caliper, and the volume data were expressed in mm^3 using the formula: V=0.5 a×b2 where a and b are the long and short diameters of the tumor, respectively. Tumor volume average is then recorded for each day for groups 1-4 until day 26.

For series [2], the system named is S-HeLa stably expressing a YFP-Parkin fusion protein. Kind of series: Mitophagy cellular assay. The series is classed as cell-based. As to conditions: YFP-Parkin HeLa cells, compound with 6 μM CCCP, Tomm20 negative cells (FIG. 4). As for the experimental part: The mitophagy cellular assay was performed as follows:
S-HeLa stably expressing a YFP-Parkin fusion protein were utilised in high content screening assays to assess Parkin-dependent endpoints. 4000 cells were seeded in each well of a 96 well plate (Perkin Elmer ViewPlate-96 F TC, cat. N. 6005182) and left to grow for 24 hours. Cells were then incubated with vehicle (DMSO) or increasing concentrations of compound (1, 2.5, 5, 10 μM) for 1 hour prior to adding 6 μM carbonyl cyanide m-chlorophenyl hydrazone (CCCP), each condition run in replicate of three. After 20 hours, the cells were processed for immunofluorescence.
Samples were fixed in 4% PFA for 25 minutes RT and permeabilized with PBS 0.1% Triton-X100 for 3 minutes on ice, blocked with PBS 3% BSA, 0.3% Triton-X100 for 2 hours RT, followed by overnight incubation with primary antibody at 4° C. […] 18 images were acquired for each well using the following combination of excitation/emission filters: Hoechst33342 was excited through a 350/50 nm band pass filter and fluorescence intensity was collected through a 460/30 band pass filter. YFP was excited through a 500/20 nm band pass filter and fluorescence intensity was collected through a 540/35 band pass filter. DyLight 649 was excited through a 640/30 nm band pass filter and fluorescence intensity was collected through 700/75 band pass filter. […]

The next series deals with ABL1 (Homo sapiens, UniProt P00519). Briefly: Kinase panel assay. Format: biochemical. From the text:
(§1) Compound 42 was also screened in a kinase panel assay.

Another series addresses AURKA (Aurora A) (Homo sapiens, UniProt O14965). Briefly: Kinase panel assay. Format: biochemical.
Text: as §1

A further series concerns the target CDK4/CyclinD3 (Homo sapiens, UniProt P11802). Kind of series: Kinase panel assay. Format: biochemical.
Text: as §1

For the next series, the target named is CDK6/CyclinD1 (Homo sapiens, UniProt Q00534). Kind of series: Kinase panel assay. Format: biochemical.
Text: as §1

The target in the next series is EGFR (ErbB1) (Homo sapiens, UniProt P00533). Kind of series: Kinase panel assay. Format: biochemical.
Text: as §1

For another series, the target named is GSK3B (GSK3 beta) (Homo sapiens, UniProt P49841). Briefly: Kinase panel assay. Format: biochemical.
Text: as §1

The next series addresses MAPK1 (ERK2) (Homo sapiens, UniProt P28482). Kind of series: Kinase panel assay. Format: biochemical.
Text: as §1

In the next series the target is MAPK14 (p38 alpha) (Homo sapiens, UniProt Q16539). Kind of series: Kinase panel assay. The series is classed as biochemical.
Text: as §1

For another series, the target named is MAPK3 (ERK1) (Homo sapiens, UniProt P27361). Briefly: Kinase panel assay. Format: biochemical.
Text: as §1

The target in the next series is PAK4 (Homo sapiens, UniProt O96013). Kind of series: Kinase panel assay. Format: biochemical.
Text: as §1

The target in a further series is PIM1 (Homo sapiens, UniProt P11309). Kind of series: Kinase panel assay. Format: biochemical.
Text: as §1

Another series deals with PLK1 (Homo sapiens, UniProt P53350). Briefly: Kinase panel assay. The series is classed as biochemical.
Text: as §1

Another series has as its target CYP2C9 (Homo sapiens, UniProt P11712). Kind of series: CYP inhibition assay. As to conditions: read-out: % Inhibition at 30 μM CYP 2C9. Format: in vitro ADME.

PIM1, sequence (P11309 whole entry, species assumed): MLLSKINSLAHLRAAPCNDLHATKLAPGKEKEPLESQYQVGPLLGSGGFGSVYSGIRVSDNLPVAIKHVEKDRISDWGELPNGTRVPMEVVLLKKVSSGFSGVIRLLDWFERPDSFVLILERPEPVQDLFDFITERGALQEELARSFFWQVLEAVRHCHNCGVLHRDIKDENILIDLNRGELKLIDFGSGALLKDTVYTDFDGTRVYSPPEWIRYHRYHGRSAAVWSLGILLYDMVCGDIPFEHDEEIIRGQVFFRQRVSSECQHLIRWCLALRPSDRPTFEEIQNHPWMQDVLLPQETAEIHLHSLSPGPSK
MAPK1 (ERK2), sequence (P28482 whole entry, species assumed): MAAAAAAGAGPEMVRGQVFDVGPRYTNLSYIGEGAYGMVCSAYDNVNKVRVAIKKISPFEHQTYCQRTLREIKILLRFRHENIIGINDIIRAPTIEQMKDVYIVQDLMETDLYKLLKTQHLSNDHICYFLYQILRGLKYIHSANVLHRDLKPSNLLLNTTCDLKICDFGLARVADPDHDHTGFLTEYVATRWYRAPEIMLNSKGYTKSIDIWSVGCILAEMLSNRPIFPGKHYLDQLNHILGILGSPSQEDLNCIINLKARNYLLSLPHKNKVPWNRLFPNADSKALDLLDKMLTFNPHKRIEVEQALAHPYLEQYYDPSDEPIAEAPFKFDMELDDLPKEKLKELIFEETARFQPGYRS
PLK1, sequence (P53350 whole entry, species assumed): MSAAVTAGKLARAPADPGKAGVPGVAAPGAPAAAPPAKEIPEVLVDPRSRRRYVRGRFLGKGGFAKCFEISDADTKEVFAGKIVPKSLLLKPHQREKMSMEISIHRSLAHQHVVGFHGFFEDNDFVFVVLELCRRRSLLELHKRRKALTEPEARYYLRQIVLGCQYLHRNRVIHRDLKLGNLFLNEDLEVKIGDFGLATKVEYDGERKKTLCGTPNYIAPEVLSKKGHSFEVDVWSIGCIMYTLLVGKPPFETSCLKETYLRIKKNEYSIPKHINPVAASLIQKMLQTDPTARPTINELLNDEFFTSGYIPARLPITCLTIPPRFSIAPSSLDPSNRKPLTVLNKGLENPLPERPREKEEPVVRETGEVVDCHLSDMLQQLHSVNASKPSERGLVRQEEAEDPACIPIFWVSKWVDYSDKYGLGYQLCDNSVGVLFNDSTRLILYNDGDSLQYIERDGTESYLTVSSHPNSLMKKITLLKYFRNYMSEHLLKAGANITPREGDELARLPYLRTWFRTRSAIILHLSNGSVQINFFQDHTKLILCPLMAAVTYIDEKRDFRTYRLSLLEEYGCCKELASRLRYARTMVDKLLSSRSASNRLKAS
CDK4/CyclinD3, sequence (P11802 whole entry, species assumed): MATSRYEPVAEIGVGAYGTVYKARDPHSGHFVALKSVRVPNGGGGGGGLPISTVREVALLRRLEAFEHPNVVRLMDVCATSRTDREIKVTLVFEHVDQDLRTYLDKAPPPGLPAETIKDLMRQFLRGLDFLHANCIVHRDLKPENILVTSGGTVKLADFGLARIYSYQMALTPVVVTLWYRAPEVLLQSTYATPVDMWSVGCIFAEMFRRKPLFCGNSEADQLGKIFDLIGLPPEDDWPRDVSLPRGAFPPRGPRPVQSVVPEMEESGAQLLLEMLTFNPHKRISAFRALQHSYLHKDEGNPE
CDK4/CyclinD3, sequence (P30281 whole entry partner, species assumed): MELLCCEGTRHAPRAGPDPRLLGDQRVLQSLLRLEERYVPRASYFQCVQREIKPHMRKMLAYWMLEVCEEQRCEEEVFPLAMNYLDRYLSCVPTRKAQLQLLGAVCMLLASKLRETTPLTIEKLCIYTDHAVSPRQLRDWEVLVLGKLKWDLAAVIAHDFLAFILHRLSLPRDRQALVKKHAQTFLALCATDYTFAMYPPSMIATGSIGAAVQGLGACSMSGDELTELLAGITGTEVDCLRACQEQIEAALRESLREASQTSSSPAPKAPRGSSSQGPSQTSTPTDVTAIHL
CYP2C9, sequence (P11712 whole entry): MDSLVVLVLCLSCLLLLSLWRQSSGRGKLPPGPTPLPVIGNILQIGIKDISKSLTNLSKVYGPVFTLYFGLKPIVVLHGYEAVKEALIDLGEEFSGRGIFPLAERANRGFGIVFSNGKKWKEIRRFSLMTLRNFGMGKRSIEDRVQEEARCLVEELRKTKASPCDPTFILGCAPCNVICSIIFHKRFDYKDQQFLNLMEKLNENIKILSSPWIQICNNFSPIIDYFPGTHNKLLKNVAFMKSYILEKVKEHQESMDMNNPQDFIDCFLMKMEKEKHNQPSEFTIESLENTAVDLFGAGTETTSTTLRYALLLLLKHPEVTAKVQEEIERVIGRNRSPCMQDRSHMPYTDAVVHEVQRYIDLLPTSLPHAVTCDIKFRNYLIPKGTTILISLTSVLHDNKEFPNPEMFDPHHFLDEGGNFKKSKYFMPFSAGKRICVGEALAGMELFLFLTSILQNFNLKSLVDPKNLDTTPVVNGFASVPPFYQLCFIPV
ABL1, sequence (P00519 whole entry, species assumed): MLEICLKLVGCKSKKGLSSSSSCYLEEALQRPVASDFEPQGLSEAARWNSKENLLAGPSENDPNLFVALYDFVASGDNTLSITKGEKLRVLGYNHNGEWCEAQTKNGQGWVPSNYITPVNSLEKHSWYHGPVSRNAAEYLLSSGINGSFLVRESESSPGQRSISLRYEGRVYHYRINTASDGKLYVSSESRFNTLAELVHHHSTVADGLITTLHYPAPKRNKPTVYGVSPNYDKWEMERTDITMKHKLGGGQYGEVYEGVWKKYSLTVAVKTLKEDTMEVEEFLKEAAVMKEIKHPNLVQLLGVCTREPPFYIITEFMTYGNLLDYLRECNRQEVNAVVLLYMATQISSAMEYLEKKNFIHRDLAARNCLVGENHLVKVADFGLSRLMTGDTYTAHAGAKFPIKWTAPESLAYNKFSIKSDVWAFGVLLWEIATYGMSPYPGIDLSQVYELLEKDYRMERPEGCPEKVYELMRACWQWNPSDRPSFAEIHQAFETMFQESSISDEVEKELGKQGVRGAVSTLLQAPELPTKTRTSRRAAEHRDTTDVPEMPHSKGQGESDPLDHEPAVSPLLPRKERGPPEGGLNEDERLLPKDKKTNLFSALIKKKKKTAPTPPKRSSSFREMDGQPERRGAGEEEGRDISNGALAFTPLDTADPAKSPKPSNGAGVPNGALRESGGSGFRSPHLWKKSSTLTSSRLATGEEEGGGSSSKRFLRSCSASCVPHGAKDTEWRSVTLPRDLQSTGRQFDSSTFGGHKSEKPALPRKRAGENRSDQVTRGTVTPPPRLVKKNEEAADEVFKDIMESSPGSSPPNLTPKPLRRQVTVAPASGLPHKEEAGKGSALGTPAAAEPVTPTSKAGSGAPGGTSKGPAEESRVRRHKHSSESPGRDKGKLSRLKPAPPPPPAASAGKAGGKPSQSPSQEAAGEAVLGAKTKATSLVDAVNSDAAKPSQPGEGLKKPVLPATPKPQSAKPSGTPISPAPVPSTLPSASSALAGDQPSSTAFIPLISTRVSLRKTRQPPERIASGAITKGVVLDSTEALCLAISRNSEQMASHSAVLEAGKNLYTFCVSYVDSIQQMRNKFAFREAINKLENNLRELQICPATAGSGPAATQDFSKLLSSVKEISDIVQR
MAPK3 (ERK1), sequence (P27361 whole entry, species assumed): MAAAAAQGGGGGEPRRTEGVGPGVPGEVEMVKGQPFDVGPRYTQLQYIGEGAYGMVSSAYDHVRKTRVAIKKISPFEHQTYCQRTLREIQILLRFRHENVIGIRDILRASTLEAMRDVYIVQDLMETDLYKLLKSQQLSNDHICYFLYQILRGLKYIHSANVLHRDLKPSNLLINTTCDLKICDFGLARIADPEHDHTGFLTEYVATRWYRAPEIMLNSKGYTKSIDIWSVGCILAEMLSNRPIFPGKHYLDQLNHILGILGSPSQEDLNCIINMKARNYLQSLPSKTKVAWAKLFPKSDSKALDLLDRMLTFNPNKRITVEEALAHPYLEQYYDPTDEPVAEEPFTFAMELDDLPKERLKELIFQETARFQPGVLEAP
AURKA (Aurora A), sequence (O14965 whole entry, species assumed): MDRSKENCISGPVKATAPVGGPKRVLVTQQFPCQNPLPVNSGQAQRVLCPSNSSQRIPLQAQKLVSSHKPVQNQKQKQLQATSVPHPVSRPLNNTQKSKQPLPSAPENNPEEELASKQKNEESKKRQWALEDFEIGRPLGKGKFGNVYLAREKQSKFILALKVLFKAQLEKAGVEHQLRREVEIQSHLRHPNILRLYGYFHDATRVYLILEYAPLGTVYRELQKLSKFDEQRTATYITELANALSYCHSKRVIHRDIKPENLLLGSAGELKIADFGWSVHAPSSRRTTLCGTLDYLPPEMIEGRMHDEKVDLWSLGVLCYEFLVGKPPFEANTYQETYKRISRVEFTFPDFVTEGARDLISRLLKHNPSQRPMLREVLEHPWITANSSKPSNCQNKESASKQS
GSK3B (GSK3 beta), sequence (P49841 whole entry, species assumed): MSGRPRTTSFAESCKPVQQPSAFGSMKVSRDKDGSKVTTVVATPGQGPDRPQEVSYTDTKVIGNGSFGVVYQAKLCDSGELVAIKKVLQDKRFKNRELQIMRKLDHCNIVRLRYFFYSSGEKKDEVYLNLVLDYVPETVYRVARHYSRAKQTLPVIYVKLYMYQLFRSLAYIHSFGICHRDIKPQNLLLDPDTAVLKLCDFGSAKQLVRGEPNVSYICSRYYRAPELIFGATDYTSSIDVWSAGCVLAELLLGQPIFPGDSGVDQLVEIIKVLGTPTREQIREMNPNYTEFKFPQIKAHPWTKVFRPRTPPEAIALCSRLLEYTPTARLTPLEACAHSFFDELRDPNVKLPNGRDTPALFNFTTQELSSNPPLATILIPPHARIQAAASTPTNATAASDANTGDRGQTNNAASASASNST

In the case of `Cc1ccccc1C(=O)Nc1nc(NC(=O)c2ccccc2C)n(-c2ccc(OC(F)(F)F)cc2)n1` [Compound 42, N,N′-(1-(4-(trifluoromethoxy)phenyl)-1H-1,2,4-triazole-3,5-diyl)bis(2-methylbenzamide)], in series [1], the reduced tumor size entry is reported as “greater than 50%”. In addition, in series [2], the “mitophagy / removal of damaged mitochondria” value was “increases removal of damaged mictochondria”. In addition, the inhibition at 10 µM is 8% on ABL1; 4% against AURKA (Aurora A); 3% against CDK4/CyclinD3; 0% on CDK6/CyclinD1; 8% against EGFR (ErbB1); 12% against GSK3B (GSK3 beta). Also, the inhibition at 10 µM worked out at 4% at MAPK1 (ERK2); 19% at MAPK14 (p38 alpha); 1% against MAPK3 (ERK1); 5% against PAK4; 5% on PIM1; 4% at PLK1. Also, the inhibition at 30 μM on CYP2C9 turned out to be 11.8%.

For orientation: inhibition means the change of the read-out against control, counted positive when it falls.
